Assays:
Format in all cases: cell-based, rat
PC12 cells [1] = test: Bt2cAMP-induced neurite formation-promoting effect in PC12 cells; conditions: 0.5 mM Bt2cAMP; for neurite formation ratio / neurite formation-promoting effect: compound 0.05-5 μM, FIGS. 1 and 2; for neurite formation-promoting effect compared between compounds: comparison with β-sitosterol or campesterol
Procedure: Using rat adrenal medullary pheochromocytoma-derived PC12 cells (obtained from RIKEN BRC) as a neurodifferentiative model, β-sitosterol, stigmasterol and campesterol were evaluated in terms of the Bt2cAMP (dibutyryladenosine 3′,5′-cyclic monophosphate)-induced neurite formation-promoting effect thereof.
First, PC12 cells were floated on an RPMI-1640 medium (from Sigma Aldrich Corporation) containing 10% equine serum (inactivated), 5% bovine fetal serum (inactivated), 100 U/mL of penicillin G and 100 μg/mL of streptomycin, and well suspended therein so as to be single cells. The suspension of PC 12 cells were sowed on a collagen-coated 96-well plate in an amount of […] cells/90 μL/well, and incubated in a 5% CO2 vapor phase at 37° C. for 24 hours. After incubation, a Dulbecco PBS(−) (Dulbecco phosphate buffer physiological saline water not containing Ca and Mg) added with Bt2cAMP at a concentration of 10 mM, RPMI-1640 medium added with β-sitosterol at a different concentration, or RPMI-1640 medium not added with β-sitosterol was added to the culture medium in each well in an amount of 5 μL each, and further incubated for 24 hours. At that time, the final concentration of each reagent added to the medium in each well was 0.5 mM with no exception for Bt2cAMP, and was 0 μM, 0.05 μM, 0.1 μM, 0.5 μM, 1 μM or 5 μM for β-sitosterol. After incubation, the culture medium was removed from each well, and 1% glutaraldehyde-containing phosphate buffer (0.1 M, pH 7.2) was dispensed in each well in an amount of 100 μL/well, and then left as such for 20 minutes to fix the cells. Subsequently, the glutaraldehyde-containing phosphate buffer was removed from each well, then a Giemsa stain fluid was dispensed in an amount of 100 μL/well, and left as such for 2 to 3 minutes for staining. After staining, the Giemsa stain fluid was removed from each well, and the stained sample in each well was washed twice with ultra-pure water, and then dried.
The number of the positive cells relative to the total number of cells (the total number of cells judged to be positive or negative) was calculated as percentage to be a neurite formation ratio. Here, for positive or negative judgement, 300 to 400 cells/well were observed.
PC12 cells were incubated according to the same method as above except that stigmasterol or campesterol, or a comparative compound of cholesterol or progesterone was used in place of β-sitosterol, and the neurite formation ratio in each case was calculated.
Graphs were drawn by plotting the neurite formation ratio relative to the concentration of β-sitosterol, campesterol or cholesterol added to the culture medium of PC 12 cells, and shown in FIG. 1. Graphs were drawn by plotting the neurite formation ratio relative to the concentration of β-sitosterol, stigmasterol or progesterone added to the culture medium of PC 12 cells, and shown in FIG. 2. In FIGS. 1 and 2, the horizontal axis is a logarithmic scale. The neurite formation ratio is shown as SD, and SD is a standard deviation in the three tests carried out in the same manner. “*” indicates p<0.05, and “**” indicates p<0.01. The same shall apply to the expression of the neurite formation ratio in FIG. 3, as measured in the following experiment (b).

PC12 cells [2] = test: Cell toxicity test (Calcein-AM, number of living PC12 cells); conditions: 0.5 mM Bt2cAMP, β-sitosterol 0.05-5 μM, 24 hours; FIG. 4
Procedure: For confirming that the neurite formation-promoting effect of each compound recognized in the above-mentioned evaluations (a) and (b) is not caused by stress (cell toxicity) given to cells, the number of living PC12 cells incubated in a culture medium added with Bt2cAMP and β-sitosterol was evaluated using Calcein-AM (from Dojindo Molecular Technologies, Inc.). Calcein-AM is a cell membrane-permeable compound, and when taken in living cells, it is hydrolyzed with esterase to release calcein. […] Accordingly, after a group of cells were processed with Calcein-AM so as to make Calcein-AM taken by the living cells, and then the cells were disrupted to measure the fluorescence intensity by calcein, whereby the number of the living cells in the group of cells can be known. […]
The fluorescence intensity of the sample in each well processed as above was measured at an excitation wavelength of 485 nm and a detection wavelength of 527 nm. The data of the measured fluorescence intensity were plotted relative to the concentration of β-sitosterol added to the culture medium of PC12 cells, and the resultant graph is shown in FIG. 4. […] The fluorescence intensity is a relative value based on the actual value of the fluorescence intensity, 100%, measured in the system not added with β-sitosterol, and is shown as ±DS. […]

PC12 cells [3] = test: NGF-inductive neural differentiation-promoting effect (neurofilament immunofluorescent staining); conditions: 10 ng/mL NGF, 0.5 μM β-sitosterol, 48 hours; FIG. 5
Procedure: A neurofilament was used as a neural differentiation marker. This was stained according to an immunofluorescent staining method for evaluating the neural differentiation promoting effect of β-sitosterol.
PC12 cells were floated in an RPMI-1640 medium containing 10% equine serum (inactivated), 5% bovine fetal serum (inactivated), 100 U/mL of penicillin G and 100 μg/mL of streptomycin and well suspended therein to be single cells of 1.4×10^4 cells/mL. The suspension of PC12 cells was sown in a collagen-coated 8-well chamber slide at 5.0×10^3 cells/360 μL/well, and incubated in a 5% CO2 vapor phase at 37° C. for 24 hours. After incubation, an NGF-added Dulbecco PBS(−) (NGF solution), and a β-sitosterol-added RPMI-1640 medium (β-sitosterol solution) were added to the medium in each well in an amount 20 μL/well each, and further incubated for 48 hours. At that time, the final concentration of each reagent added to the medium in each well was 10 ng/mL for NGF, and was 0.5 μM for β-sitosterol. After incubation, the medium was removed from each well, which was then washed with PBS(−) (phosphate buffer physiological saline water (not containing Ca and Mg)), processed with a 4% formaldehyde solution dispensed in each well for 30 minutes, and thereafter washed three times with PBS(−) for 3 minutes. […]

PC12 cells [4] = test: NGF-induced neurite formation-promoting effect in PC12 cells; conditions: 10 ng/mL NGF, β-sitosterol 0.05-5 μM, 48 hours; FIG. 3
Procedure: Here, NGF (nerve growth factor) differing from Bt2cAMP in point of signaling pathways was used as an inducing agent for neurite formation to evaluate the NGF-induced neurite formation-promoting effect of β-sitosterol.
Specifically, PC12 cells were incubated according to the same method as above except that an NGF-added Dulbecco PBS(−) was used in place of the Bt2cAMP-added Dulbecco PBS(−) and the incubation time for the PC12 cells after addition of NGF and β-sitosterol thereto was 48 hours, and the neurite formation ratio was calculated. The final concentration of each reagent added to the culture medium of PC12 cells in each well was 10 ng/mL with no exception for NGF, and was 0 μM, 0.05 μM, 0.1 μM, 0.5 μM, 1 μM or 5 μM for β-sitosterol. A graph was drawn by plotting the neurite formation ratio relative to the concentration of β-sitosterol added to the culture medium of PC 12 cells, and shown in FIG. 3.

## CC(=O)[C@H]1CC[C@H]2[C@@H]3CCC4=CC(=O)CC[C@]4(C)[C@H]3CC[C@]12C [Progesterone, progesterone, reference compound]
PC12 cells [1]; 24 hours
  neurite formation ratio / neurite formation-promoting effect: extremely weak
PC12 cells [1]; compound added in an amount of 0.1 μM, 24 hours, FIG. 2
  neurite formation ratio: recognized to increase the neurite formation ratio

## CC(C)[C@H](C)CC[C@@H](C)[C@H]1CC[C@H]2[C@@H]3CC=C4C[C@@H](O)CC[C@]4(C)[C@H]3CC[C@]12C [campesterol]
PC12 cells [1]; 24 hours
  neurite formation ratio / neurite formation-promoting effect: significantly increased

## CC(C)CCC[C@@H](C)[C@H]1CC[C@H]2[C@@H]3CC=C4C[C@@H](O)CC[C@]4(C)[C@H]3CC[C@]12C [cholesterol, reference compound]
PC12 cells [1]; 24 hours
  neurite formation ratio / neurite formation-promoting effect: not recognized to have a neurite formation-promoting effect

## CC[C@H](/C=C/[C@@H](C)C1CCC2C3CC=C4C[C@@H](O)CC[C@]4(C)C3CC[C@@]21C)C(C)C (stereo partly drawn) [stigmasterol]
PC12 cells [1]; 24 hours
  neurite formation ratio / neurite formation-promoting effect: significantly increased
PC12 cells [1]
  neurite formation-promoting effect compared between compounds: no difference in the neurite formation-promoting effect

## CC[C@H](CC[C@@H](C)C1CCC2C3CC=C4C[C@@H](O)CC[C@]4(C)C3CC[C@@]21C)C(C)C (stereo partly drawn) [β-sitosterol]
PC12 cells [1]; 24 hours
  neurite formation ratio / neurite formation-promoting effect: significantly increased
PC12 cells [1]
  neurite formation-promoting effect compared between compounds: stronger neurite formation-promoting effect than the system added with campesterol
PC12 cells [2]
  fluorescence intensity (calcein), relative to system not added with β-sitosterol: changed little
  number of living cells: does not decrease
PC12 cells [3]
  neurofilaments (bright spots in FITC fluorescently-stained image) versus NGF alone: larger number of neurofilaments appeared
PC12 cells [4]
  neurite formation ratio: significantly increased

Source: patent publication US20210207086A1, “NE[…], INTERNAL AGENT, CULTURE MEDIUM ADDITIVE, CELL DILUENT ADDITIVE, CULTURE MEDIUM, AND CELL DILUENT” (LAIMU CORPORATION, priority 2018, published 2021)
